Tests used:
Type in all cases: physicochemical
[1] = Chemical stability under acid and alkaline conditions
[2] = Solubility in water and aqueous buffers; settings: water and aqueous buffers at various pH values
[3] = In vitro dissolution from tablet, USP XXIII Paddle Method; settings: drospirenone in micronized form in a pharmaceutical composition; rapid dissolution defined as at least 70% over about 30 minutes from 3 mg tablet in 900 ml water at 37° C., 50 rpm
Experimental: A micronized substance is such that a test batch (ca. 200 mg) of the particles, herein drospirenone particles, has a surface area of more than 10,000 cm^2/g, and has the following particle size distribution for drospirenone as determined under the microscope: not more than 2 particles in a given batch (ca. 200 mg) with a diameter of more than 30 μm, and preferably ≦20 particles with a diameter of ≧10 μm and ≦30 μm.

## C[C@]12CCC(=O)C=C1[C@@H]1C[C@@H]1[C@H]1[C@@H]3[C@@H]4C[C@@H]4[C@@]4(CCC(=O)O4)[C@@]3(C)CC[C@@H]12 [drospirenone, 6β,7β;15β;16β-dimethylene-3-oxo-17α-preg-4-ene-21,17-carbolactone]
[1]; acid conditions
  stability under acid conditions: rearranged to an inactive isomer
[1]; alkaline conditions
  stability under alkaline conditions: hydrolysed
[2]
  solubility: sparingly soluble
[3]
  in vitro dissolution of active compound from composition: rapid dissolution

Reference: patent publication US20020132801A1, “Drospirenone for hormone replacement therapy” (Schering Aktiengesellschaft, priority 2001, published 2002)
